Reference: ChEMBL document CHEMBL1201862, “PubChem BioAssay data set” (2004)
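Results reflect a 48-hour exposure of cells in 96-well plates to compound at five concentrations. The concentration for 50% growth inhibition is given as GI50.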 Calls of active or inactive are those of the source. No stated cut-off is given here; in the data, active = GI50 up to about 1.1 µM and inactive = higher.

Experiments:
Assay in all cases: NCI-60 cell line screen, 48 h
IGROV-1 = test system: IGROV-1
SW-620 = test system: SW-620
MOLT-4 = test system: MOLT-4
RXF 393 = test system: RXF 393
OVCAR-4 = test system: OVCAR-4
786-0 = test system: 786-0
ACHN = test system: ACHN
HL-60 = test system: HL-60
COLO 205 = test system: COLO 205
SNB-75 = test system: SNB-75
SK-MEL-28 = test system: SK-MEL-28
MDA-MB-435 = test system: MDA-MB-435
RPMI-8226 = test system: RPMI-8226
NCI/ADR-RES = test system: NCI/ADR-RES
SK-OV-3 = test system: SK-OV-3
SF-268 = test system: SF-268
UACC-62 = test system: UACC-62
U-251 = test system: U-251
T47D = test system: T47D
CCRF-CEM = test system: CCRF-CEM
M14 = test system: M14
A549 = test system: A549
SK-MEL-2 = test system: SK-MEL-2
CAKI-1 = test system: CAKI-1
MCF7 = test system: MCF7
SK-MEL-5 = test system: SK-MEL-5
HOP-92 = test system: HOP-92
NCI-H23 = test system: NCI-H23
Malme-3M = test system: Malme-3M
K562 = test system: K562
SR = test system: SR
NCI-H460 = test system: NCI-H460
HOP-62 = test system: HOP-62
PC-3 = test system: PC-3
Hs-578T = test system: Hs-578T
EKVX = test system: EKVX
SF-539 = test system: SF-539
KM12 = test system: KM12
SF-295 = test system: SF-295
HCT-15 = test system: HCT-15
UACC-257 = test system: UACC-257
HCC 2998 = test system: HCC 2998
MDA-N = test system: MDA-N
OVCAR-8 = test system: OVCAR-8
SNB-19 = test system: SNB-19
DU-145 = test system: DU-145
MDA-MB-231 = test system: MDA-MB-231
UO-31 = test system: UO-31
OVCAR-3 = test system: OVCAR-3
TK-10 = test system: TK-10
HCT-116 = test system: HCT-116
BT-549 = test system: BT-549
HT-29 = test system: HT-29
OVCAR-5 = test system: OVCAR-5
A498 = test system: A498
LOX IMVI = test system: LOX IMVI
NCI-H226 = test system: NCI-H226
NCI-H522 = test system: NCI-H522
SN12C = test system: SN12C

Measured: GI50

C=CCN1C(=O)CS/C1=N/NC(=O)C(O)(c1ccccc1)c1ccccc1
inactive: IGROV-1 > 10 µM | SW-620 > 10 µM | MOLT-4 > 10 µM | RXF 393 > 10 µM | OVCAR-4 > 10 µM | 786-0 > 10 µM | ACHN > 10 µM | HL-60 > 10 µM | COLO 205 > 10 µM | SNB-75 > 10 µM | SK-MEL-28 > 10 µM | MDA-MB-435 > 10 µM | RPMI-8226 > 10 µM | NCI/ADR-RES > 10 µM | SK-OV-3 > 10 µM | SF-268 > 10 µM | UACC-62 > 10 µM | U-251 > 10 µM | T47D > 10 µM | CCRF-CEM > 10 µM | M14 > 10 µM | A549 > 10 µM | SK-MEL-2 > 10 µM | CAKI-1 > 10 µM | MCF7 > 10 µM | SK-MEL-5 > 10 µM | HOP-92 > 10 µM | NCI-H23 > 10 µM | Malme-3M > 10 µM | K562 > 10 µM | SR > 10 µM | NCI-H460 > 10 µM | HOP-62 > 10 µM

S=C(N/N=C(\C(=N/NC(=S)N1CCCCC1)c1ccccn1)c1ccccn1)N1CCCCC1
inactive: PC-3 35.1 µM | Hs-578T 28.8 µM | IGROV-1 48.8 µM | SW-620 9.12 µM | EKVX 80 µM | MOLT-4 8.53 µM | RXF 393 18 µM | SF-539 35.4 µM | KM12 51.8 µM | SF-295 34.8 µM | 786-0 36.5 µM | ACHN 6.84 µM | UACC-257 54.1 µM | HCC 2998 26.3 µM | MDA-N 57.8 µM | OVCAR-8 27.9 µM | COLO 205 6.38 µM | SNB-75 56.1 µM | SK-MEL-28 21.1 µM | SNB-19 30.3 µM | DU-145 14.9 µM | MDA-MB-435 38.4 µM | MDA-MB-231 > 100 µM | UO-31 19.2 µM | RPMI-8226 67.9 µM | NCI/ADR-RES 7.06 µM | SK-OV-3 29.1 µM | SF-268 5.55 µM | UACC-62 26.5 µM | U-251 32.7 µM | OVCAR-3 3.63 µM | TK-10 19.4 µM | CCRF-CEM 3.91 µM | M14 15.2 µM | A549 31.1 µM | CAKI-1 73.6 µM | MCF7 12.1 µM | HCT-116 15.5 µM | BT-549 78.2 µM | SK-MEL-5 5.5 µM | HT-29 61 µM | HOP-92 64.3 µM | NCI-H23 44.8 µM | OVCAR-5 51.2 µM | A498 32.7 µM | LOX IMVI 20.2 µM | Malme-3M 17.3 µM | K562 32.5 µM | SR > 100 µM | NCI-H226 26.3 µM | NCI-H522 9.18 µM | NCI-H460 14 µM | HOP-62 21.3 µM
active: HL-60 1.12 µM
6.87 µM: HCT-15

CO/C(=N\N=C\c1ccc(OC)cc1OC)c1ccncc1
inactive: PC-3 > 10 µM | IGROV-1 > 10 µM | SW-620 > 10 µM | MOLT-4 > 10 µM | RXF 393 > 10 µM | SF-539 > 10 µM | KM12 > 10 µM | SF-295 > 10 µM | 786-0 > 10 µM | ACHN > 10 µM | HCC 2998 > 10 µM | HL-60 > 10 µM | OVCAR-8 > 10 µM | COLO 205 > 10 µM | SNB-75 > 10 µM | SK-MEL-28 > 10 µM | SNB-19 > 10 µM | UO-31 > 10 µM | RPMI-8226 > 10 µM | NCI/ADR-RES > 10 µM | SK-OV-3 > 10 µM | SF-268 > 10 µM | U-251 > 10 µM | T47D > 10 µM | TK-10 > 10 µM | CCRF-CEM > 10 µM | A549 > 10 µM | SK-MEL-2 > 10 µM | MCF7 > 10 µM | HCT-116 > 10 µM | SK-MEL-5 > 10 µM | NCI-H23 > 10 µM | OVCAR-5 > 10 µM | A498 > 10 µM | LOX IMVI > 10 µM | Malme-3M > 10 µM | K562 > 10 µM | SR > 10 µM | NCI-H226 > 10 µM | SN12C > 10 µM | NCI-H460 > 10 µM | HOP-62 > 10 µM
> 10 µM: HCT-15

O=[N+]([O-])c1ccc(/C=N/Nc2nnc3c4ccccc4c4ncccc4c3n2)o1
inactive: PC-3 > 10 µM | IGROV-1 > 10 µM | SW-620 > 10 µM | EKVX > 10 µM | MOLT-4 > 10 µM | RXF 393 > 10 µM | KM12 > 10 µM | SF-295 > 10 µM | 786-0 > 10 µM | UACC-257 > 10 µM | HCC 2998 > 10 µM | MDA-N > 10 µM | HL-60 > 10 µM | OVCAR-8 > 10 µM | COLO 205 > 10 µM | SNB-75 > 10 µM | SK-MEL-28 > 10 µM | DU-145 > 10 µM | MDA-MB-231 > 10 µM | RPMI-8226 > 10 µM | SK-OV-3 > 10 µM | SF-268 > 10 µM | UACC-62 > 10 µM | T47D > 10 µM | TK-10 > 10 µM | CCRF-CEM > 10 µM | M14 > 10 µM | A549 > 10 µM | CAKI-1 > 10 µM | MCF7 > 10 µM | SK-MEL-5 > 10 µM | HT-29 > 10 µM | NCI-H23 > 10 µM | Malme-3M > 10 µM | K562 > 10 µM | SR > 10 µM | SN12C > 10 µM | HOP-62 > 10 µM
> 10 µM: HCT-15

CCOC(=O)C1=C(Cl)c2cccnc2C1=O
inactive: PC-3 > 100 µM | Hs-578T 27.7 µM | IGROV-1 52.8 µM | SW-620 30.3 µM | EKVX 62.5 µM | MOLT-4 34 µM | RXF 393 > 100 µM | SF-539 82.6 µM | KM12 > 100 µM | OVCAR-4 > 100 µM | SF-295 39.4 µM | 786-0 44 µM | ACHN 35.4 µM | UACC-257 39.7 µM | HCC 2998 61.7 µM | MDA-N 34.9 µM | HL-60 > 100 µM | COLO 205 43.4 µM | SNB-75 13 µM | SK-MEL-28 > 100 µM | SNB-19 53 µM | DU-145 21.5 µM | MDA-MB-435 28 µM | MDA-MB-231 > 100 µM | UO-31 > 100 µM | RPMI-8226 87.3 µM | NCI/ADR-RES > 100 µM | SK-OV-3 > 100 µM | SF-268 55.2 µM | UACC-62 > 100 µM | U-251 35.6 µM | OVCAR-3 19.8 µM | TK-10 > 100 µM | CCRF-CEM 26.4 µM | M14 54.2 µM | A549 55.7 µM | SK-MEL-2 > 100 µM | CAKI-1 54.6 µM | MCF7 38.5 µM | HCT-116 27.4 µM | BT-549 45.4 µM | SK-MEL-5 53.6 µM | HT-29 81.7 µM | HOP-92 > 100 µM | NCI-H23 16.4 µM | A498 > 100 µM | LOX IMVI 23.7 µM | Malme-3M 31.3 µM | K562 54.7 µM | SR 11.4 µM | NCI-H226 > 100 µM | SN12C 52.4 µM | NCI-H522 86.5 µM | NCI-H460 > 100 µM | HOP-62 32.2 µM
53.7 µM: HCT-15
